Like-named read-outs stand apart in the source and are kept apart here.
Columns and labels:
SARS-CoV-2 3CL protease = SARS-CoV-2 3CL protease (Severe acute respiratory syndrome coronavirus 2, UniProt P0DTD1); assay: biochemical; details: 50% SARS-CoV-2 3CL protease inhibitory concentration, read-out: IC50
SARS-CoV-2 = assay: microbe, parasite or virus in culture; format: cell-based; details: Severe acute respiratory syndrome coronavirus 2, VeroE6/TMPRSS2, 72 h, 50% SARS-CoV-2 infected cell death inhibitory concentration, VeroE6/TMPRSS2 cells, 3 days culture

| Structure (SMILES) | IC50 (SARS-CoV-2 3CL protease; RapidFire MS) | EC50 (SARS-CoV-2; CellTiter-Glo 2.0) | IC50 (SARS-CoV-2 3CL protease; given as class symbols) | EC50 (SARS-CoV-2; class symbols) |
| --- | --- | --- | --- | --- |
| Cc1cncc(-n2c(=O)nc(Nc3cc4cn(C)nc4cc3Cl)n(Cc3cc(Cl)c(F)cc3F)c2=O)c1 [II-0377] | 3 nM | 49 nM | – | – |
| Cc1cncc(-n2c(=O)nc(Nc3cc4cn(C)nc4cc3Cl)n(Cc3ccc(F)c(C#N)c3C)c2=O)c1 [II-0020] | – | – | < 100 nM | 1000 to 10000 nM |
| O=c1[nH]cccc1Cn1c(=O)nc(Nc2cc3cccnc3cc2Cl)n(Cc2cc(F)c(F)c(F)c2)c1=O [Compound I-0279] | – | – | < 100 nM | 1000 to 10000 nM |
| Cc1cncc(-n2c(=O)nc(Nc3ccc4oc(C)c(C)c4c3)n(Cc3ccc(F)c(C#N)c3)c2=O)c1 [II-0195] | – | – | < 100 nM | 1000 to 10000 nM |
| Cn1cnc(Cn2c(=O)nc(Nc3cc4oc(N)nc4cc3Cl)n(Cc3cc(F)c(F)c(Cl)c3)c2=O)n1 [II-0508] | – | – | < 100 nM | 1000 to 10000 nM |
| COc1ccc(Nc2nc(=O)n(Cc3cc(C(F)(F)F)c[nH]c3=O)c(=O)n2Cc2cc(F)c(F)c(F)c2)cc1 [Compound I-0307] | 440 nM | – | 100 to 1000 nM | < 1000 nM |
| COc1ccc(Nc2nc(=O)n(Cc3cc(Cl)c[nH]c3=O)c(=O)n2Cc2cc(F)c(F)c(F)c2)cc1 [Compound I-0069] | – | – | < 100 nM | 1000 to 10000 nM |
| Cc1cncc(-n2c(=O)nc(Nc3cc4cn(C)nc4cc3Cl)n(Cc3cc(Cl)ccc3C(F)(F)F)c2=O)c1 [II-0077] | – | – | < 100 nM | < 1000 nM |
| CCn1cc2cc(Nc3nc(=O)n(Cc4ncn(C)n4)c(=O)n3Cc3cc(F)c(F)cc3F)c(Cl)cc2n1 [II-0548] | 14 nM | 533 nM | – | – |
| Cn1cnc(Cn2c(=O)nc(Nc3cc4cn(C)nc4cc3F)n(Cc3cc(Cl)c(F)cc3F)c2=O)n1 [II-0515] | – | – | < 100 nM | 1000 to 10000 nM |
| CNc1nc2ccc(Nc3nc(=O)n(-c4cncc(C)c4)c(=O)n3Cc3cc(F)c(F)c(F)c3)cc2s1 [II-0323] | – | – | < 100 nM | < 1000 nM |
| Cc1cncc(-n2c(=O)nc(Nc3cc4cn(C)nc4cc3Cl)n(Cc3cc(Cl)ccc3C#N)c2=O)c1 [II-0426] | – | – | < 100 nM | < 1000 nM |
| Cc1cncc(-n2c(=O)nc(Nc3cc4cn(C)nc4cc3Cl)n(Cc3ccc(F)c(C#N)c3)c2=O)c1 [Compound I-0383] | 3.4 nM | 96 nM | – | – |
| CNc1nc2ccc(Nc3nc(=O)n(-c4cncc(C)c4)c(=O)n3Cc3cc(C#N)c(F)cc3Cl)cc2s1 [II-0421] | – | – | < 100 nM | < 1000 nM |
| COc1ccc(Nc2nc(=O)n(Cc3ccc[nH]c3=O)c(=O)n2Cc2ccc(F)c(Br)c2)cc1 [Compound I-0196] | – | – | < 100 nM | 1000 to 10000 nM |
| Cc1cncc(-n2c(=O)nc(Nc3cc4cn(C)nc4cc3C)n(Cc3ccc(F)c(C#N)c3)c2=O)c1 [Compound I-0385] | – | – | < 100 nM | < 1000 nM |
| Cn1cnc(Cn2c(=O)nc(Nc3cc4cn(C)nc4cc3Cl)n(Cc3ccc(F)c(C#N)c3)c2=O)n1 [II-0286] | – | – | < 100 nM | 1000 to 10000 nM |
| Cn1cnc(Cn2c(=O)cc(Nc3cc4cn(C(F)F)nc4cc3Cl)n(Cc3cc(F)c(F)c(F)c3)c2=O)n1 [II-0431] | – | – | < 100 nM | < 1000 nM |
| Cc1cncc(-n2c(=O)nc(Nc3cc4cn(C)nc4cc3Cl)n(Cc3ccc(F)c(Cl)c3)c2=O)c1 [II-0442] | – | – | < 100 nM | < 1000 nM |
| Cn1cnc(Cn2c(=O)nc(Nc3cc4cn(CC5CCO5)nc4cc3Cl)n(Cc3cc(Cl)c(F)cc3F)c2=O)n1 (racemic) [II-0408] | – | – | < 100 nM | 1000 to 10000 nM |
| Cc1cncc(-n2c(=O)nc(Nc3cc4cn(CC(F)F)nc4cc3F)n(Cc3cc(F)c(F)c(C#N)c3)c2=O)c1 [II-0506] | – | – | < 100 nM | < 1000 nM |
| Cc1cncc(-n2c(=O)nc(Nc3cc4cn(C)nc4cc3F)n(Cc3cc(C#N)ccc3Cl)c2=O)c1 [II-0364] | – | – | < 100 nM | < 1000 nM |
| Cn1cc(-c2ccnc(Cn3c(=O)nc(Nc4cc5cn(C)nc5cc4Cl)n(Cc4cc(F)c(F)cc4F)c3=O)c2)cn1 [II-0254] | – | – | < 100 nM | 1000 to 10000 nM |
| Cc1cncc(-n2c(=O)nc(Nc3cc4sc(NCC(F)F)nc4cc3F)n(Cc3cc(F)c(F)c(C#N)c3)c2=O)c1 [II-0423] | – | – | < 100 nM | 1000 to 10000 nM |
| Cc1cc(F)c(C#N)cc1Cn1c(Nc2ccc3nn(C)cc3c2)nc(=O)n(-c2cncc(Cl)c2)c1=O [II-0571] | 5.4 nM | 190 nM | – | – |
| N#Cc1cc(Cn2c(Nc3ccc4c(c3)CCO4)nc(=O)n(-c3cncc4ccccc34)c2=O)cc(F)c1F [Compound I-0481] | 2.7 nM | 43.2 nM | – | – |
| Cc1cncc(-n2c(=O)nc(Nc3cc4c(cc3Cl)OC(C)C4)n(Cc3ccc(F)c(C#N)c3)c2=O)c1 (stereo not drawn) [II-0114] | – | – | < 100 nM | < 1000 nM |
| Cn1cnc(Cn2c(=O)nc(Nc3cc4c(cc3Cl)OCC4)n(Cc3cc(F)c(F)c(F)c3)c2=O)n1 [Compound I-0482] | 15 nM | 385 nM | – | – |

Reference: patent US12559474B2, “Triazine derivatives having virus replication inhibitory activity and pharmaceutical composition comprising the same” (priority 2021, dated 2026)
